# Reference: patent US20050215543A1, “Methods of treating HIV infection” (priority 2004, published 2005)
# Legend:
# HIV-1 Bal = assay: Drug susceptibility assay, PM-1 cells infected with HIV-1 Bal, p24 assay readout (combinations with CCR5 inhibitors); type: cell-based; conditions: for Combination Indices at % HIV Inhibition (Confidence Interval) 50%: 50% HIV inhibition; for Combination Indices at % HIV Inhibition (Confidence Interval) 50% / Combination Indices at % HIV Inhibition (Confidence Interval) 75% / Combination Indices at % HIV Inhibition (Confidence Interval) 90%: p24, 95% CI in parenthesis; for Combination Indices at % HIV Inhibition (Confidence Interval) 75%: 75% HIV inhibition; for Combination Indices at % HIV Inhibition (Confidence Interval) 90%: 90% HIV inhibition
# Experimental: (§1) Virus and cell lines. The T-cell lines, MT-2 and PM-1 were obtained through the AIDS Research and Reference Reagent Program, NIAID, and were contributed by Dr. D. Richman and Dr. R. Gallo, respectively. Both cell lines were cultured in RPMI 1640 medium supplemented with 10% fetal bovine serum, 2 mM L-glutamine and sub-cultured twice a week. The LAI strain of HIV-1 was obtained from the Fred Hutchinson Cancer Research Center, and the Bal strain was from NIH. Both virus stocks were amplified and titered in MT-2 cells (LAI) and PM-1 cells (Bal) using a virus infectivity assay.
# (§2) Drug Susceptibility and Cytotoxicity Assays. For drug susceptibility assays, MT-2 cells were infected with HIV-1 LAI (or PM-1 cells with HIV-1 Bal) at an MOI of 0.005, and seeded into 96-well microtiter plates (0.1×10^6 cells/ml) containing serial dilutions of test compounds. […] Each drug ratio consisted of an array of 3-fold serial dilutions, and was performed in quadruplicate. The plates were incubated at 37° C./5% CO2. The MT-2 cells infected with HIV-1 LAI were incubated for 5 days. On day-five post-infection, 20 μl from each well was harvested and quantitated by a reverse transcriptase (RT) assay, or in samples involving non-nucleoside RT inhibitors, an MTS assay. The PM-1 cells infected with HIV-1 Bal and used for studying the combinations with CCR5 inhibitors were incubated for six days. On day-six post-infection, 20 μl from each well was harvested, 20- and 50-fold diluted and quantitated by p24 assay. Cytotoxicity assays were performed using uninfected cells, exposed to the same drug combinations, and incubated for six days. Cell viability was determined by an XTT assay. The CC50 values were calculated by using the exponential form of the median effect equation as mentioned below for calculation of EC50.
# (§3) Analysis of Drug Combination Effects. For determination of CI values, drugs were diluted in a fixed ratio and multiple ratios were analyzed. The drug serial dilutions spanned a range of concentrations near the EC50 value of each compound, so that equivalent antiviral activities could be compared. Concentration-response curves were estimated for each individual drug and every combination using the median-effect equation. The equation was fit using a nonlinear regression routine (Proc Nlin) in PC SAS version 8.01 (SAS Institute Inc., SAS Version 8.01, Cary, N.C.: SAS Institute Inc., 1990).
# (§4) In this equation, Fa stands for “fraction affected,” and represents the fraction of the viral load that has been inactivated. […] ED50 is drug concentration that is expected to reduce the amount of virus by 50%, and m is a parameter that reflects the slope of the concentration-response curve.
# (§5) To assess antiviral effects of different drug combination treatments, combination indices (CIs) were calculated according to Chou and Rideout. The combination index was computed as CI=[D]1/[Dm]1+[D]2/[Dm]2
# (§6) In this equation [Dm]1 and [Dm]2 are the concentrations of drugs that would individually produce a specific level of effect, while [D]1 and [D]2 are the concentrations of drugs in combination that would produce the same level of effect.
# (§7) Theoretically, additivity is implied if the CI is equal to one, synergy if the CI is less than one, and antagonism if the CI is greater than one. […] At best, we can construct a range that contains the likely values for the CI, given the noise in the data. In this report, these ranges are reported in parentheses next to each point estimate of the CI. […] If the range fell entirely above 1.0, we would infer antagonistic behavior. If the range were to include 1.0, we would infer additivity.
# (§8) In carrying out the combination experiments below, the EC50 for Compound 1 and each comparator compound was determined during the course of each study, and used in the subsequent data analysis.
# HIV-1 LAI [1] = assay: Drug susceptibility assay, MT-2 cells infected with HIV-1 LAI, MTS assay readout (samples involving non-nucleoside RT inhibitors); type: cell-based; conditions: for EC50: Human immunodeficiency virus 1, MT2, 120 h, single drug, MT-2 cells, HIV-1 LAI, MOI 0.005, 5 days, MTS assay (non-nucleoside RT inhibitors); for Combination Indices at % HIV Inhibition (Confidence Interval) 50%: 50% HIV inhibition; for Combination Indices at % HIV Inhibition (Confidence Interval) 50% / Combination Indices at % HIV Inhibition (Confidence Interval) 75% / Combination Indices at % HIV Inhibition (Confidence Interval) 90%: MTS readout, 95% CI in parenthesis; for Combination Indices at % HIV Inhibition (Confidence Interval) 75%: 75% HIV inhibition; for Combination Indices at % HIV Inhibition (Confidence Interval) 90%: 90% HIV inhibition; for Overall Result: two-drug combination with Compound 1, all ratios and effect levels, MT-2/HIV-1 LAI, MTS assay
# Experimental: as §1, §2, §3, §4, §5, §6, §7, §8
# HIV-1 LAI [2] = assay: microbe, parasite or virus in culture; conditions: for Combination Indices at % HIV Inhibition (Confidence Interval) 50%: 50% HIV inhibition; for Combination Indices at % HIV Inhibition (Confidence Interval) 50% / Combination Indices at % HIV Inhibition (Confidence Interval) 75% / Combination Indices at % HIV Inhibition (Confidence Interval) 90%: 95% CI in parenthesis; for Combination Indices at % HIV Inhibition (Confidence Interval) 75%: 75% HIV inhibition; for Combination Indices at % HIV Inhibition (Confidence Interval) 90%: 90% HIV inhibition; for Overall Result: two-drug combination with Compound 1, all ratios and effect levels, MT-2/HIV-1 LAI, RT assay
# Experimental: as §1, §2, §3, §4, §5, §6, §7, §8
# [3] = combination with Compound 1, EC50 ratio 1:1, PM-1/HIV-1 Bal
# [4] = combination with Compound 1, EC50 ratio 1:2.5, PM-1/HIV-1 Bal
# [5] = combination with Compound 1, EC50 ratio 2.5:1, PM-1/HIV-1 Bal
# [6] = combination with Compound 1, EC50 ratio 1:1
# [7] = combination with Compound 1, EC50 ratio 1:2.5
# [8] = combination with Compound 1, EC50 ratio 2.5:1
Compound,EC50 (HIV-1 LAI [1]),Combination Indices at % HIV Inhibition (Confidence Interval) 50% (HIV-1 LAI [1]; [6]),Combination Indices at % HIV Inhibition (Confidence Interval) 75% (HIV-1 LAI [1]; [6]),Combination Indices at % HIV Inhibition (Confidence Interval) 90% (HIV-1 LAI [1]; [6]),Combination Indices at % HIV Inhibition (Confidence Interval) 50% (HIV-1 LAI [1]; [7]),Combination Indices at % HIV Inhibition (Confidence Interval) 75% (HIV-1 LAI [1]; [7]),Combination Indices at % HIV Inhibition (Confidence Interval) 90% (HIV-1 LAI [1]; [7]),Combination Indices at % HIV Inhibition (Confidence Interval) 50% (HIV-1 LAI [1]; [8]),Combination Indices at % HIV Inhibition (Confidence Interval) 75% (HIV-1 LAI [1]; [8]),Combination Indices at % HIV Inhibition (Confidence Interval) 90% (HIV-1 LAI [1]; [8]),Overall Result (HIV-1 LAI [1]),also measured
CCO/N=C(\c1ccc(Br)cc1)C1CCN(C2(C)CCN(C(=O)c3c(C)cc[n+]([O-])c3C)CC2)CC1 [Sch-C],,,,,,,,,,,,"Combination Indices at % HIV Inhibition (Confidence Interval) 50% (HIV-1 Bal; [3]): 0.63 (0.51, 0.74); Combination Indices at % HIV Inhibition (Confidence Interval) 75% (HIV-1 Bal; [3]): 0.70 (0.52, 0.89); Combination Indices at % HIV Inhibition (Confidence Interval) 90% (HIV-1 Bal; [3]): 0.80 (0.46, 1.13); Combination Indices at % HIV Inhibition (Confidence Interval) 50% (HIV-1 Bal; [4]): 0.49 (0.41, 0.58); Combination Indices at % HIV Inhibition (Confidence Interval) 75% (HIV-1 Bal; [4]): 0.65 (0.49, 0.80); Combination Indices at % HIV Inhibition (Confidence Interval) 90% (HIV-1 Bal; [4]): 0.86 (0.52, 1.19); Combination Indices at % HIV Inhibition (Confidence Interval) 50% (HIV-1 Bal; [5]): 0.24 (0.19, 0.28); Combination Indices at % HIV Inhibition (Confidence Interval) 75% (HIV-1 Bal; [5]): 0.36 (0.27, 0.45); Combination Indices at % HIV Inhibition (Confidence Interval) 90% (HIV-1 Bal; [5]): 0.55 (0.31, 0.79); EC50 (HIV-1 Bal; single drug, PM-1 cells, HIV-1 Bal, MOI 0.005, 6 days, p24 assay (CCR5 inhibitors)): 3 nM; Overall Result (HIV-1 Bal; two-drug combination with Compound 1, all ratios and effect levels, PM-1/HIV-1 Bal, p24 assay): moderate synergistic to synergistic"
"O=C1Nc2ccc(Cl)cc2[C@@](C#CC2CC2)(C(F)(F)F)O1 [Efavirenz, efavirenz]",0.06 nM,"0.71 (0.50, 0.91)","0.64 (0.38, 0.90)","0.64 (0.22, 1.06)","0.23 (0.17, 0.29)","0.23 (0.17, 0.30)","0.25 (0.12, 0.38)","0.58 (0.45, 0.70)","0.47 (0.32, 0.61)","0.46 (0.23, 0.69)",Synergistic,Overall Result (HIV-1 LAI [1]; listed as efavirenz): strong synergistic effects
"CC(C)Nc1cccnc1N1CCN(C(=O)c2cc3cc(NS(C)(=O)=O)ccc3[nH]2)CC1 [Delavirdine, delavirdine]",1.6 nM,"0.11 (0.00, 0.26)","0.09 (0.02, 0.15)","0.09 (0.00, 0.21)","0.32 (0.20, 0.43)","0.09 (0.08, 0.10)","0.03 (0.02, 0.03)","0.28 (0.22, 0.35)","0.17 (0.14, 0.20)","0.16 (0.11, 0.35)",Synergistic,Overall Result (HIV-1 LAI [1]; listed as delavirdine): strong synergistic effects
"Cc1ccnc2c1NC(=O)c1cccnc1N2C1CC1 [Nevirapine, nevirapine]",63 nM,"0.87 (0.79, 0.94)","0.80 (0.69, 0.90)","0.74 (0.58, 0.89)","0.85 (0.74, 0.96)","0.68 (0.58, 0.79)","0.55 (0.43, 0.66)","0.71 (0.62, 0.81)","0.63 (0.52, 0.73)","0.56 (0.42, 0.70)",Synergistic,Overall Result (HIV-1 LAI [1]; listed as nevirapine): strong synergistic effects
"COC(=O)N[C@H](C(=O)N[C@@H](Cc1ccccc1)[C@@H](O)CN(Cc1ccc(-c2ccccn2)cc1)NC(=O)[C@@H](NC(=O)OC)C(C)(C)C)C(C)(C)C [Atazanavir, atazanavir]",,,,,,,,,,,,"EC50 (HIV-1 LAI [2]; Human immunodeficiency virus 1, MT2, 120 h): 1 nM; Combination Indices at % HIV Inhibition (Confidence Interval) 50% (HIV-1 LAI [2]; combination with Compound 1, EC50 ratio 1:1 (Compound 1:comparator)): 1.04 (0.60, 1.49); Combination Indices at % HIV Inhibition (Confidence Interval) 75% (HIV-1 LAI [2]; [6]): 0.58 (0.24, 0.93); Combination Indices at % HIV Inhibition (Confidence Interval) 90% (HIV-1 LAI [2]; [6]): 0.33 (0.02, 0.64); Combination Indices at % HIV Inhibition (Confidence Interval) 50% (HIV-1 LAI [2]; [7]): 0.23 (0.09, 0.38); Combination Indices at % HIV Inhibition (Confidence Interval) 75% (HIV-1 LAI [2]; [7]): 0.35 (0.07, 0.63); Combination Indices at % HIV Inhibition (Confidence Interval) 90% (HIV-1 LAI [2]; [7]): 0.52 (0.00, 1.24); Combination Indices at % HIV Inhibition (Confidence Interval) 50% (HIV-1 LAI [2]; [8]): 0.88 (0.49, 1.27); Combination Indices at % HIV Inhibition (Confidence Interval) 75% (HIV-1 LAI [2]; [8]): 0.67 (0.26, 1.09); Combination Indices at % HIV Inhibition (Confidence Interval) 90% (HIV-1 LAI [2]; [8]): 0.52 (0.01, 1.04); Overall Result (HIV-1 LAI [2]): Additive-; Overall Result (HIV-1 LAI [2]; listed as atazanavir): additive to synergistic"
